Read-outs that look alike come from different tables or passages of the source.
Columns and labels:
[1] = target: acetylcholinesterase (AChE) (Electrophorus electricus, UniProt O42275); test: AChE inhibition, modified Ellman method; type: biochemical; details: for inhibition at 50 µM / inhibition at 100 µM / inhibition at 250 µM: read-out: AChE Inhibition (%); for IC50: relative IC50 from nonlinear regression, tested 0.01–250 μM
Method: (§1) Building on the previously promising in vitro results of thienobenzo-1,2,3-triazolinium salts against cholinesterases, research was extended to a series of structurally related bromide salts. The inhibitory effects of a new set of triazolinium salts (1–4, 7–11, 14–17) on the activities of acetylcholinesterase (AChE) and butyrylcholinesterase (BChE) are summarized in Table 1. Their inhibitory activity was assessed using a modified Ellman method over a wide concentration range (0.01–250 μM). The IC50 values listed in Table 1 are relative IC50 values, obtained directly from the nonlinear regression analysis of the inhibition curves under defined test conditions. For reference, the inhibitory effect at the highest tested concentration is also reported. The results were compared with galantamine, a well-known cholinesterase inhibitor used in the treatment of Alzheimer’s disease.
(§2) The inhibitory effects of the new synthesized thiabenzo-1,2,3-triazolinium bromide salts, 1–4, 7–11, and 14–17, on acetylcholinesterase (AChE) and butyrylcholinesterase (BChE) activity were evaluated using the modified Ellman’s method.
(§3) DTNB, ATChI, and BTChI were prepared in 50 mM Tris buffer (pH 8.0), while the enzymes were made in 20 mM Tris buffer (pH 7.5). Using a 96-well microplate reader (Agilent, BioTek 800TS, Santa Clara, CA, USA), cholinesterase activity was assessed. Amounts of 180 μL of 50 mM Tris buffer, 10 μL of tested solutions with final concentrations ranging from 0.01 to 250 μM, and 10 μL of an enzyme with a final concentration of 0.03 U/mL were added to the microplate well, which was then left to incubate for 15 min at room temperature. Following incubation, 10 μL of DTNB (final concentration: 0.3 mM) and […] of ATChI/BTChI (final concentration: 0.5 mM) were added to the reaction mixture. After four minutes, the absorbance was measured at 405 nm. Non-enzymatic hydrolysis was assessed as a blank for the control measurement in the absence of inhibitors and enzymes. The samples were tested using the non-enzymatic hydrolysis procedure with an additional inhibitor as a blank. The enzyme was swapped out for the same amount of buffer.
(§4) The inhibition % was determined using the following formula: Inhibition (%) = [(AC − AT)/AC] × 100, where AC is the activity of the enzyme without a test sample and AT is the activity of the enzyme with a test sample. The mean values ± standard deviation are used to illustrate the results. Inhibitory activity of ethanol was deducted from each sample. A nonlinear fit of compound concentration values vs. response was used to determine the IC50 values. Each trazolinium salt was tested against both enzymes in triplicate.

[2] = target: T1, butyrylcholinesterase (BChE) (Equus caballus, UniProt P81908); test: BChE inhibition, modified Ellman method; type: biochemical
T1 construct: BChE (extracted from equine serum); purchased Sigma-Aldrich; host or cells: equine serum (natural source)
T1 sequence (P81908 whole entry): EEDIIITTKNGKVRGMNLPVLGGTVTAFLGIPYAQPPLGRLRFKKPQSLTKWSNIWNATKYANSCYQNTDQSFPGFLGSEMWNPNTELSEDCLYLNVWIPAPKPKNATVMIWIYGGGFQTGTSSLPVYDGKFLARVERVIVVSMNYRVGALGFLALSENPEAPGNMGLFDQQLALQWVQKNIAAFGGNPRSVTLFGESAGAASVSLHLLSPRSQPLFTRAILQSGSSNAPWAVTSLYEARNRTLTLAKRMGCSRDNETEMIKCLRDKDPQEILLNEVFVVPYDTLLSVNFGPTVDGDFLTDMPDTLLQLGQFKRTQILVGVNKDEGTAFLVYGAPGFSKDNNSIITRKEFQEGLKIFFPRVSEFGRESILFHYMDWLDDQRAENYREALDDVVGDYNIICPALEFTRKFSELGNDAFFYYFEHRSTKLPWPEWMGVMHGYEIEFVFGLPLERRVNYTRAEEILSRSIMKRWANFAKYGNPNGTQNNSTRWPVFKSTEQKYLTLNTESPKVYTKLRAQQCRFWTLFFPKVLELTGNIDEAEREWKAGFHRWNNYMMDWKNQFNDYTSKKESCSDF
Method: as §1, §2, §3, §4

[3] = system: LPS-stimulated TNFα production in PBMCs; test: TNFα production in LPS-stimulated PBMCs (ELISA); type: cell-based, human
Method: The potential anti-inflammatory activity of compounds 1–4, 7–11, and 14–17 was also evaluated in vitro by the measurement of TNFα production in LPS-stimulated PBMCs. […] At lower concentrations that were not affecting cell viability, LPS-induced TNFα production was not changed. […] Compound 17 was active only at the highest tested concentration.
The effect of compounds on tumor necrosis factor alpha (TNFα) production in lipopolysaccharide (LPS)-stimulated peripheral blood mononuclear cells (PBMCs) was evaluated as described previously. […]
(§5) For cell viability evaluation, CellTiter-Glo reagent was used (Promega, Radoboj, Croatia) according to the manufacturer’s instructions. […] TNFα concentration in supernatants was measured by ELISA using antibodies and recombinant human TNFα protein (standard) from R&D Systems. […] Finally, after the plates were incubated with streptavidin HRP (Invitrogen, Thermo Fisher Scientific, Waltham, MA, USA), chemiluminescence ELISA Substrate (Roche, Zagreb, Croatia) was added to the wells and luminescence was measured using EnVision 2105 multilabel reader (Revvity, Waltham, MA, USA). Concentrations of TNFα in the supernatants were calculated using measured luminescence by interpolation from standard curves. […]

PBMCs = test: Cell viability of PBMCs (CellTiter-Glo); type: cell-based; details: LPS-stimulated PBMCs, 24 h
Method: The effect of compounds on tumor necrosis factor alpha (TNFα) production in lipopolysaccharide (LPS)-stimulated peripheral blood mononuclear cells (PBMCs) was evaluated as described previously. In short, PBMCs were isolated from buffy coats obtained from healthy adult volunteers and resuspended in RPMI1640 medium (Capricorn Scientific, Ebsdorfergrundu, Germany) supplemented with 10% heat-inactivated FBS (Biowest, Nuailléu, France), 1% GlutaMAX (Gibco, St. Louis, MO, USA), and 1% Antibiotic-Antimycotic (Gibco, St. Louis, MO, USA). PBMCs were seeded as 2 × 10^5 per well of a 96-well plate. […]
as §5

BChE = system: BChE; parameters: method as in PMID 40732321; details: cited from earlier work
[4] = system: LPS-induced TNF-α production; parameters: method as in PMID 40732321; details: read-out: IC50, inhibition of LPS-induced TNF-α production; cited from earlier work
[5] = relative IC50 from nonlinear regression, tested 0.01–250 μM, read-out: BChE IC50

Chain of acetylcholinesterase (AChE) (O42275 24-633): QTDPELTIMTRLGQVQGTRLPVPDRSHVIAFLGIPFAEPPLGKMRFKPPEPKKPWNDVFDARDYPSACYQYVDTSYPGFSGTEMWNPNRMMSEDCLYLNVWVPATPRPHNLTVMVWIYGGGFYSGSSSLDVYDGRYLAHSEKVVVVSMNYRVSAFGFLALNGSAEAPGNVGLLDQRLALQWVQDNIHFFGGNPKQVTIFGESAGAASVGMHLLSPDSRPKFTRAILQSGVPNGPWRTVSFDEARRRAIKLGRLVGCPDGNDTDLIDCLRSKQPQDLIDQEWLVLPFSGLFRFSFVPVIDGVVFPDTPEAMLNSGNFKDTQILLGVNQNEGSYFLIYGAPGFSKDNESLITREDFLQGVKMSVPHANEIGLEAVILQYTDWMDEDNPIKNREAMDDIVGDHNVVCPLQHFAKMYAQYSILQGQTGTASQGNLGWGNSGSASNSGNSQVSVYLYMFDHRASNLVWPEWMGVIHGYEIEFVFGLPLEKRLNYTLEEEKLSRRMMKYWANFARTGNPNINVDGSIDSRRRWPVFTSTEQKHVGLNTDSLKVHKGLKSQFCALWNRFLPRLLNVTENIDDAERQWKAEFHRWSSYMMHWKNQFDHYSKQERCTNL

Molecule `Cc1cccc(Cn2n[n+](Cc3ccccc3)c3ccc4sccc4c32)c1` [Compound 1, 3-benzyl-1-(3-methylbenzyl)-1H-thieno[3′,2′:3.4]benzo[1.2-d][1.2,3]triazol-3-ium bromide] has an inhibition at 50 µM [1] of 78.6 ± 0.5%, an IC50 [1] of 6300 nM and an inhibition at 25 µM ([2]; read-out: BChE Inhibition (%)) of 83.9 ± 0.2%. The IC50 [2, 5] was 400 nM.

In the case of `Cc1ccc(C[n+]2nn(Cc3cccc(C)c3)c3c4ccsc4ccc32)cc1` [Compound 2, 1-(3-methylbenzyl)-3-(4-methylbenzyl)-1H-thieno[3′,2′:3.4]benzo[1.2-d][1.2,3]triazol-3-ium bromide], the inhibition at 50 µM [1] is reported as 82.1 ± 4.2%, the IC50 [1] is reported as 4100 nM and the inhibition at 2.5 µM ([2]; read-out: BChE Inhibition (%)) is reported as 77.6 ± 0.3%. For the same molecule, the IC50 [2, 5] was 300 nM.

`Cc1cccc(Cn2n[n+](Cc3ccc(I)cc3)c3ccc4sccc4c32)c1` [Compound 3, 3-(4-iodobenzyl)-1-(3-methylbenzyl)-1H-thieno[3′,2′:3.4]benzo[1.2-d][1.2,3]triazol-3-ium bromide] showed an inhibition at 50 µM [1] of 76.7 ± 0.5%, an IC50 [1] of 5900 nM and an inhibition at 50 µM ([2]; read-out: BChE Inhibition (%)) of 84.9 ± 3.6%. The IC50 [2, 5] was 700 nM.

For `Clc1cccc(Cn2n[n+](Cc3ccc(I)cc3)c3ccc4sccc4c32)c1` [Compound 4, 1-(3-chlorobenzyl)-3-(4-iodobenzyl)-1H-thieno[3′,2′:3.4]benzo[1.2-d][1.2,3]triazol-3-ium bromide], the inhibition at 50 µM [1] was 74.6 ± 5%, the IC50 [1] was 14200 nM and the inhibition at 25 µM ([2]; read-out: BChE Inhibition (%)) was 83.2 ± 0.9%. For the same molecule, the IC50 [2, 5] was 800 nM.

Molecule `COc1cccc(Cn2n[n+](Cc3ccc(Cl)cc3)c3ccc4sccc4c32)c1` [Compound 7, 3-(4-chlorobenzyl)-1-(3-methoxybenzyl)-1H-thieno[3′,2′:3.4]benzo[1.2-d][1.2,3]triazol-3-ium bromide] has an inhibition at 100 µM [1] of 79.4 ± 4.9%, an IC50 [1] of 11800 nM and an inhibition at 10 µM ([2]; read-out: BChE Inhibition (%)) of 78.2 ± 0.4%. For the same molecule, the IC50 [2, 5] was 1000 nM.

Molecule `Cc1ccc(Cn2n[n+](Cc3ccccc3)c3ccc4sccc4c32)cc1` [Compound 8, 3-benzyl-1-(4-methylbenzyl)-1H-thieno[3′,2′:3.4]benzo[1.2-d][1.2,3]triazol-3-ium bromide] has an inhibition at 50 µM [1] of 80.7 ± 2.3%, an IC50 [1] of 2600 nM and an inhibition at 10 µM ([2]; read-out: BChE Inhibition (%)) of 83.6 ± 1%. It also gave an IC50 [2, 5] of 400 nM.

`Cc1ccc(Cn2n[n+](Cc3ccc(C)cc3)c3ccc4sccc4c32)cc1` [Compound 9, 1.3-bis(4-methylbenzyl)-1H-thieno[3′,2′:3.4]benzo[1.2-d][1.2,3]triazol-3-ium bromide] gave an inhibition at 50 µM [1] of 78.7 ± 0.6%, an IC50 [1] of 5700 nM and an inhibition at 25 µM ([2]; read-out: BChE Inhibition (%)) of 76.6 ± 0.4%. For the same molecule, the IC50 [2, 5] was 3500 nM.

In the case of `Cc1ccc(Cn2n[n+](Cc3ccc(Cl)cc3)c3ccc4sccc4c32)cc1` [Compound 10, 3-(4-chlorobenzyl)-1-(4-methylbenzyl)-1H-thieno[3′,2′:3.4]benzo[1.2-d][1.2,3]triazol-3-ium bromide], the inhibition at 100 µM [1] is reported as 81.9 ± 0.6%, the IC50 [1] is reported as 6500 nM and the inhibition at 25 µM ([2]; read-out: BChE Inhibition (%)) is reported as 79.9 ± 1.1%. It also gave an IC50 [2, 5] of 1500 nM.

Work on `Cc1ccc(Cn2n[n+](Cc3ccc([N+](=O)[O-])cc3)c3ccc4sccc4c32)cc1` [Compound 11, 1-(4-methylbenzyl)-3-(4-nitrobenzyl)-1H-thieno[3′,2′:3.4]benzo[1.2-d][1.2,3]triazol-3-ium bromide] yielded an inhibition at 50 µM [1] of 83.6 ± 2.1%, an IC50 [1] of 3200 nM and an inhibition at 25 µM ([2]; read-out: BChE Inhibition (%)) of 81.1 ± 1.7%. It also gave an IC50 [2, 5] of 2700 nM.

Molecule `CC=Cn1n[n+](Cc2ccccc2)c2ccc3sccc3c21` [Compound 14, 3-benzyl-1-(prop-1-en-1-yl)-1H-thieno[3′,2′:3.4]benzo[1.2-d][1.2,3]triazol-3-ium bromide] has an inhibition at 100 µM [1] of 84.2 ± 0.5%, an IC50 [1] of 4300 nM and an IC50 [2] of 1000 nM. The inhibition at 25 µM ([2]; read-out: BChE Inhibition (%)) was 80.4 ± 2.9%.

In the case of `CC=Cn1n[n+](Cc2ccc(C)cc2)c2ccc3sccc3c21` [Compound 15, 3-(4-methylbenzyl)-1-(prop-1-en-1-yl)-1H-thieno[3′,2′:3.4]benzo[1.2-d][1.2,3]triazol-3-ium], the inhibition at 250 µM [1] is reported as 82.3 ± 0.8%, the IC50 [1] is reported as 14400 nM and the inhibition at 50 µM ([2]; read-out: BChE Inhibition (%)) is reported as 84 ± 0.7%. The IC50 [2, 5] was 900 nM.

Work on `CC=Cn1n[n+](Cc2ccc(Cl)cc2)c2ccc3sccc3c21` [Compound 16, 3-(4-chlorobenzyl)-1-(prop-1-en-1-yl)-1H-thieno[3′,2′:3,4]benzo[1,2-d][1–3]triazol-3-ium] yielded an inhibition at 250 µM [1] of 82.6 ± 1.1%, an IC50 [1] of 5400 nM and an inhibition at 100 µM ([2]; read-out: BChE Inhibition (%)) of 84.8 ± 0.8%. It also gave an IC50 [2, 5] of 2300 nM.

With `CC=Cn1n[n+](Cc2ccc([N+](=O)[O-])cc2)c2ccc3sccc3c21` [Compound 17, 3-(4-nitrobenzyl)-1-(prop-1-en-1-yl)-1H-thieno[3′,2′:3,4]benzo[1,2-d][1–3]triazol-3-ium] the “classification as AChE inhibitor” value ([1]; in words) was “weak AChE inhibitor”, the inhibition at 100 µM [1] was 62.6 ± 5.3% and the IC50 [1] was 63800 nM. The inhibition at 100 µM ([2]; read-out: BChE Inhibition (%)) was 85.5 ± 0.5%, the IC50 [2, 5] was 11400 nM and the “effect on LPS-stimulated TNFα production” value ([3]; PBMCs, starting concentration 100 µM, three-fold dilutions) was “slightly inhibited LPS-stimulated TNFα production”. For the same molecule, the “effect on cell viability” value (PBMCs) was “no effect on cell viability”.

In the case of `C=CCn1n[n+](Cc2ccccc2)c2ccc3sccc3c21` [E], the IC50 (BChE) is listed as 98 nM.

For `Cc1ccc(C[n+]2nn(Cc3cccc(F)c3)c3c4ccsc4ccc32)cc1` [F], the IC50 [4] is given as 660 nM.

In the case of `C[C@@H]1C[C@H]2[C@@H]3CCC4=CC(=O)C=C[C@]4(C)[C@@]3(F)[C@@H](O)C[C@]2(C)[C@@]1(O)C(=O)CO` [dexamethasone, reference compound], the IC50 ([3]; Homo sapiens, PBMC, PBMCs from two donors, read-out: IC50, inhibition of LPS-stimulated TNFα production) is reported as 3.5 nM.

Source: article PMC12388126, “Photochemically Assisted Synthesis of Thienobenzotriazole-Based Dual Cholinesterase Inhibitors” (Molecules, 2025)
